Laboratory results: ChEMBL document CHEMBL4602715, “Efficacy and Tolerability of Pyrazolo[1,5-a]pyrimidine RET Kinase Inhibitors for the Treatment of Lung Adenocarcinoma” (ACS Med Chem Lett, 2020)
Values after ≈ are worked out from the molar mass of the structure shown.

Assays:
[1] = tested on: BaF3; assay: Cytotoxicity against mouse BA/F3 cells assessed as reduction in cell viability incubated for 48 hrs by brightglo-luciferase reporter gene assay; type: cell-based; details: BaF3, 48 h
[2] = target: Bcr/Abl fusion protein (Homo sapiens, UniProt P00519); assay: Inhibition of BCR/ABL (unknown origin) transfected in mouse Ba/F3 cells assessed as reduction in cell viability incubated for 48 hrs by brightglo-luciferase reporter gene assay; type: cell-based, BaF3
[3] = Toxicity in Harlan Foxn1 nude mouse xenografted with rat RIE cells transfected with KIF5B/RET assessed as lungs hemorrhaging at 10 to 60 mg/kg, po administered bid for 8 days; type: organism-based; details: in vivo, 192 h
[4] = tested on: LC-2-ad; assay: Cytotoxicity against human LC2/ad cells assessed as reduction in cell viability incubated for 6 days by CellTiter Glo assay; type: cell-based; details: 144 h
[5] = Half life in BALB/c mouse at 2 mg/kg, iv measured upto 24 hrs by LC-MS/MS analysis; type: ADME, organism-based; details: in vivo
[6] = Half life in BALB/c mouse at 10 mg/kg, po measured upto 24 hrs by LC-MS/MS analysis; type: ADME, organism-based; details: in vivo
[7] = Clearance in BALB/c mouse at 2 mg/kg, iv measured upto 24 hrs by LC-MS/MS analysis; type: ADME, organism-based; details: in vivo
[8] = Cmax in BALB/c mouse at 2 mg/kg, iv measured upto 24 hrs by LC-MS/MS analysis; type: ADME, organism-based; parameters: dose 2 mg/kg, route intravenous; details: in vivo
[9] = target: T1, Voltage-gated inwardly rectifying potassium channel KCNH2 (Homo sapiens, UniProt Q12809); assay: Inhibition of human ERG expressed in human embryonic kidney cells by manual patch clamp assay; type: cell-based
[10] = target: T1, Voltage-gated inwardly rectifying potassium channel KCNH2; assay: Displacement of [3H]-dofetilide from human ERG expressed in CHO cells incubated for 90 mins by microbeta scintillation counting method; type: cell-based
[11] = Cmax in BALB/c mouse at 10 mg/kg, po measured upto 24 hrs by LC-MS/MS analysis; type: ADME, organism-based; parameters: dose 10 mg/kg, route oral; details: in vivo
[12] = Oral bioavailability in BALB/c mouse at 10 mg/kg measured upto 24 hrs by LC-MS/MS analysis; type: ADME, organism-based; details: in vivo
[13] = Toxicity in Harlan Foxn1 nude mouse xenografted with rat RIE cells transfected with KIF5B/RET assessed as hypothermia at 10 to 60 mg/kg, po administered bid for 8 days; type: organism-based; details: in vivo, 192 h
[14] = Toxicity in Harlan Foxn1 nude mouse xenografted with rat RIE cells transfected with KIF5B/RET assessed as hypothermia at 3 mg/kg, po administered bid for 8 days; type: organism-based; details: in vivo, 192 h
[15] = Toxicity in Harlan Foxn1 nude mouse xenografted with rat RIE cells transfected with KIF5B/RET assessed as lungs hemorrhaging at 3 mg/kg, po administered bid for 8 days; type: organism-based; details: in vivo, 192 h
[16] = AUC in BALB/c mouse at 10 mg/kg, po measured upto 24 hrs by LC-MS/MS analysis; type: ADME, organism-based; parameters: dose 10 mg/kg, time < 24 hr, route oral; details: in vivo
[17] = Volume of distribution at steady state in BALB/c mouse at 2 mg/kg, iv measured upto 24 hrs by LC-MS/MS analysis; type: ADME, organism-based; details: in vivo, read-out: Vdss
[18] = AUC in BALB/c mouse at 2 mg/kg, iv measured upto 24 hrs by LC-MS/MS analysis; type: ADME, organism-based; parameters: dose 2 mg/kg, time < 24 hr, route intravenous; details: in vivo
[19] = Aqueous solubility of compound at pH 6.8 incubated for 24 hrs by HPLC/UV analysis; type: physicochemical

T1 sequence (Q12809 whole entry): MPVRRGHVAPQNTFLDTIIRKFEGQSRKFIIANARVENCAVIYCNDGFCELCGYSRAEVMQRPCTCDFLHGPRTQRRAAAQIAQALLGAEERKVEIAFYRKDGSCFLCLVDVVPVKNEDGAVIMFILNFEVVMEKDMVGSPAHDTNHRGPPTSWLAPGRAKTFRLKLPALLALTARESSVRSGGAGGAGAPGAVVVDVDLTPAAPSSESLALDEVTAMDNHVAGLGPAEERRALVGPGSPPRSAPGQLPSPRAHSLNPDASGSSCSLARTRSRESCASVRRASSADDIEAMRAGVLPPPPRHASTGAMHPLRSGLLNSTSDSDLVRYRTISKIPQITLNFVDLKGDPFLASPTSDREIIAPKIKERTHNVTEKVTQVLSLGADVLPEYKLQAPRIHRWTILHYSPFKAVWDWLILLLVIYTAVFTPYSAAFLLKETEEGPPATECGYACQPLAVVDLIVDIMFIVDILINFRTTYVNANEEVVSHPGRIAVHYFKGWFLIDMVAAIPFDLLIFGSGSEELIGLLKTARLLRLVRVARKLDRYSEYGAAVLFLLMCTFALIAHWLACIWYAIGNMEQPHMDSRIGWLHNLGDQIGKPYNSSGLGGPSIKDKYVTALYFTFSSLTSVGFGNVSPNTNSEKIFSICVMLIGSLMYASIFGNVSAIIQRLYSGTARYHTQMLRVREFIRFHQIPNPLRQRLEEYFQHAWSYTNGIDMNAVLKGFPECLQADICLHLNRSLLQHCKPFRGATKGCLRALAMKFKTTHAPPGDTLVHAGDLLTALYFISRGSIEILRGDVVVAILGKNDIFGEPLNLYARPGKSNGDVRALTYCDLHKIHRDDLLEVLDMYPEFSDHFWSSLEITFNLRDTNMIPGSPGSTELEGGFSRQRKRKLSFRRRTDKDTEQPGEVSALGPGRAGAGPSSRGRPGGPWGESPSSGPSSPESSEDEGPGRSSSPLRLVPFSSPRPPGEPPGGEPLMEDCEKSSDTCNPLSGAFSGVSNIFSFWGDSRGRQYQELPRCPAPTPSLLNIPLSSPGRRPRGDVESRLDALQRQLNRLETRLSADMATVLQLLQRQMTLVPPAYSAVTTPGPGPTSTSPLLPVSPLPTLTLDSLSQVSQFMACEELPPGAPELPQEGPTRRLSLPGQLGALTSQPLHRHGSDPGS
Sequence of Bcr/Abl fusion protein (P00519 whole entry, the tested form may be a part): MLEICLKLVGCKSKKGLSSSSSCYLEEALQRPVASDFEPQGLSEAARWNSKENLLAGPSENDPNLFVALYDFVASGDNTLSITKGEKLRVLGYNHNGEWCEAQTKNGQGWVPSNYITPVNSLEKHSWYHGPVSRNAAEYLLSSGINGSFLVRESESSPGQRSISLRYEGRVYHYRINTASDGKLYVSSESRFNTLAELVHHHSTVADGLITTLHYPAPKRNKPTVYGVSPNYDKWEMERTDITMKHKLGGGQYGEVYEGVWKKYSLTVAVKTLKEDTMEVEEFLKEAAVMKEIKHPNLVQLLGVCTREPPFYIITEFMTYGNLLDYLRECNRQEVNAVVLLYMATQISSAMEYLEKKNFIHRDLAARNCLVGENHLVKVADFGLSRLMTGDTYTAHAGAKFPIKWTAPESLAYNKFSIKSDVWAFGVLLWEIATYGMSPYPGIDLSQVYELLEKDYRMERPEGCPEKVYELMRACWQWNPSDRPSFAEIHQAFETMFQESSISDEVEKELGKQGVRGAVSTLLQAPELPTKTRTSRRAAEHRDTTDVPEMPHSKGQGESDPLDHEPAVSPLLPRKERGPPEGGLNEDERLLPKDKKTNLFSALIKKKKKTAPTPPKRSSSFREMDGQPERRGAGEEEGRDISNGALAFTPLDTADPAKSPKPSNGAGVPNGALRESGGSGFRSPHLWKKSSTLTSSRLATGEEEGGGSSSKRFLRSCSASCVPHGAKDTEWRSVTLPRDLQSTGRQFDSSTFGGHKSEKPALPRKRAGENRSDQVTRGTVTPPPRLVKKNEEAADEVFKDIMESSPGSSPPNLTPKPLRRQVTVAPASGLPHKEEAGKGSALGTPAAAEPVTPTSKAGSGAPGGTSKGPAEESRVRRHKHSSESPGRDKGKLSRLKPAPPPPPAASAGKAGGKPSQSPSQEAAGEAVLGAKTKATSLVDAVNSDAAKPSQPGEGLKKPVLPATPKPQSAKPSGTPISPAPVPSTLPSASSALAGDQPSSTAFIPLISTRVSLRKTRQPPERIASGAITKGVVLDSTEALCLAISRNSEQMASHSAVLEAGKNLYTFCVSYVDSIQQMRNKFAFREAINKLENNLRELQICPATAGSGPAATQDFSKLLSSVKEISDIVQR
Sequence of Bcr/Abl fusion protein (P11274 whole entry, further chain, the tested form may be a part): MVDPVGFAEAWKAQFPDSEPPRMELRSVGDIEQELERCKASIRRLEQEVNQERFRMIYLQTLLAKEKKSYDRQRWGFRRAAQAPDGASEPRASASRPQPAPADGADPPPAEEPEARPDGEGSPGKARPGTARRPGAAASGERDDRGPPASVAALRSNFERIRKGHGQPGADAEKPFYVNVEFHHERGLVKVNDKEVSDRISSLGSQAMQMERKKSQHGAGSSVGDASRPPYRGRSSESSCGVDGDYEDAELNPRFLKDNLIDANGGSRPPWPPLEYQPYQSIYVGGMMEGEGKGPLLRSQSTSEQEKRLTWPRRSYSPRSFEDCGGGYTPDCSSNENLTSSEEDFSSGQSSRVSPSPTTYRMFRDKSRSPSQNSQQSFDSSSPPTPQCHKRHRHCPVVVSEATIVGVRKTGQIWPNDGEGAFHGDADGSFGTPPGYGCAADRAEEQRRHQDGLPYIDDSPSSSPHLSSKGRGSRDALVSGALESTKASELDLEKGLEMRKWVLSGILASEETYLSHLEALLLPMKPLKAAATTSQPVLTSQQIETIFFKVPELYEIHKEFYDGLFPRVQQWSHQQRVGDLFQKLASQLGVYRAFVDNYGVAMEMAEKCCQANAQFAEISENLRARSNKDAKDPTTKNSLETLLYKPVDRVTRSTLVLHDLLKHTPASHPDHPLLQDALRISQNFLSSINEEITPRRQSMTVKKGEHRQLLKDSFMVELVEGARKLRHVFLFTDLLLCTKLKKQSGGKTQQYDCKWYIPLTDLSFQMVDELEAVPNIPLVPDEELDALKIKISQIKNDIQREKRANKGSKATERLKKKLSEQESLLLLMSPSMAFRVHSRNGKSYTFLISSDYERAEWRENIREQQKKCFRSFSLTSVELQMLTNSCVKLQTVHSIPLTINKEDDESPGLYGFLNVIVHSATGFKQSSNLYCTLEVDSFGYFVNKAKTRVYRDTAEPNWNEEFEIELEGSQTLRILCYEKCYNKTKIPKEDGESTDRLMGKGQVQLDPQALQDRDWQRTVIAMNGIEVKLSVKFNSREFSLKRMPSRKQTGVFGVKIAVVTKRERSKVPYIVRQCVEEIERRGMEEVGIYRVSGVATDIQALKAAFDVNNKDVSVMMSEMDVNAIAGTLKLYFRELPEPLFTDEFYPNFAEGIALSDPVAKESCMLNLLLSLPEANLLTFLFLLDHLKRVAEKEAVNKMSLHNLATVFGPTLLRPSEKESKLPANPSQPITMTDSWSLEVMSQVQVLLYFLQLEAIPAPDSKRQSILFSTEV

Compound | IC50 [1] | IC50 [2] | IC50 [4] | half-life [5] | half-life [6] | clearance [7] | Cmax [8] | Cmax [11] | bioavailability [12] | AUC at 24 h [16] | Vd [17] | AUC at 24 h [18] | solubility at 24 h [19] | also measured
COC(=O)Nc1ccc(-c2c(OC3CCN(C)CC3)nc3c(-c4ccc(OC)c(OC)c4)cnn3c2N)cc1 | 5 µM | 5.1 µM |  |  |  |  |  |  |  |  |  |  |  | 
COC(=O)N1CCN(C(=O)c2ccc(-c3cnn4c(N)c(-c5ccccc5)c(NC5CC(C)(C)N(C)C(C)(C)C5)nc34)cc2)CC1 |  |  | 1.3 µM | 3.7 h | 3.7 h | 19 mL/min/kg | 940 nM | 820 nM | 62% | 8.7 µM·h | 5.1 L/kg | 2.8 µM·h |  | Activity [3]: Toxic; IC50 [9]: Not Active; IC50 [10]: 7.5 µM; Activity [13]: Toxic; Activity [14]: Non-Toxic; Activity [15]: Non-Toxic
COc1ccc(-c2cnn3c(N)c(-c4nccs4)c(OC4CCN(C)CC4)nc23)cc1OC | > 11 µM | > 10 µM |  |  |  |  |  |  |  |  |  |  |  | 
COc1ccc(-c2cnn3c(N)c(-c4ccccc4)c(OC4CCNCC4)nc23)cc1OC |  |  | 2.7 µM |  |  |  |  |  |  |  |  |  | 47 µM (≈ 20.9 µg/mL) | 
CN1C(C)(C)CC(Nc2nc3c(-c4ccc(C(=O)N5CCN(S(C)(=O)=O)CC5)cc4)cnn3c(N)c2-c2ccccc2)CC1(C)C |  |  | 2.8 µM | 1.6 h | 2.2 h | 110 mL/min/kg | 450 nM | 100 nM | 14% | 0.34 µM·h | 11 L/kg | 0.49 µM·h |  | 
COc1ccc(-c2cnn3c(N)c(-c4ccccc4)c(NC4CCN(C)CC4)nc23)cc1OC |  |  | 5.5 µM |  |  |  |  |  |  |  |  |  | 85 µM (≈ 39 µg/mL) | 
